Source: PubChem BioAssay (NCI)
“And” between values parts separate entries of the source, which are not always exact repeats. Equal values may be shown once.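 How tested: cells in 96-well plates exposed to compound for 48 hours at five concentrations. Abbreviation: GI50, concentration required for 50% inhibition of growth. TGI: concentration producing complete growth inhibition.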

What was measured:
Assay in all cases: inhibition of tumour cell growth, NCI panel, 48 h
[1] = system: MOLT-4 leukemia
[2] = system: K-562 leukemia
[3] = system: SW-620 colon
[4] = system: UO-31 renal
[5] = system: SF-268 CNS
[6] = system: NCI-H460 lung
[7] = system: NCI-H23 lung
[8] = system: A498 renal
[9] = system: LOX IMVI melanoma
[10] = system: RXF 393 renal

Compound | GI50 [1] | TGI [1] [µM] | GI50 [2] | TGI [2] | GI50 [3] | TGI [3] [µM] | GI50 [4] [µM] | TGI [4] | GI50 [5] [µM] | TGI [5] [µM] | GI50 [6] [nM] | TGI [6] [µM] | GI50 [7] [µM] | TGI [7] [µM] | GI50 [8] [µM] | TGI [8] [µM] | GI50 [9] [µM] | TGI [9] | GI50 [10] [nM] | TGI [10]
CC/C(=C(/c1ccc(O)cc1)c1ccc(OCCN2CCCCC2)cc1)c1ccc(OC)cc1 | 1600 nM | 5.71 | 290 nM | 1.16 µM | 1770 nM | 3.89 | 1.13 | 2.49 µM | 2.14 | 6.38 | 2170 | 4.72 | 10.1 | 23.4 | 4.29 | 17.6 | 1.63 | 3.27 µM |  | 
Cc1cc2c(c3oc(C4(C)OC4C4OC4C)cc(=O)c13)C(=O)c1c(O)c(C3CC(C)(N(C)C)C(O)C(C)O3)cc(C3CC(N(C)C)C(O)C(C)O3)c1C2=O (centres undefined) | 0.0944 nM and 0.106 nM |  | 0.0838 nM and 0.124 nM | 0.0147 µM and 0.0192 µM and 0.0348 µM | 0.0489 nM and 0.111 nM |  | 0.00638 | 0.0143 µM and 0.00225 µM |  |  | < 0.01 |  |  |  | 0.00057 | 0.00114 | 0.000175 | 0.00189 µM and 0.000224 µM | < 0.01 | 7.97e-05 µM and 0.000406 µM
CCOc1ccccc1NC(=O)CCc1n[nH]c(=S)o1 |  | > 100 |  | > 100 µM |  | > 100 |  | > 100 µM |  | > 100 |  |  |  | > 100 |  |  |  | > 100 µM |  | 
CCOC(=O)/C(C#N)=C1/C(O)=C(C(=O)OC)C(C(=O)OC)=C1C(=O)OC |  | > 100 |  | > 100 µM |  | > 100 |  | > 100 µM |  | > 100 |  | > 100 |  | > 100 |  |  |  | > 100 µM |  | > 100 µM
CC[C@@H]1C[C@H]2CC3c4[nH]c5ccc(O)cc5c4CCN(C2)C31 |  | > 100 |  | > 100 µM |  | > 100 |  | > 100 µM |  | > 100 |  | > 100 |  | > 100 |  |  |  | > 100 µM |  | > 100 µM
S=c1nc(Cl)cc2[nH]c(Cl)cn12 |  |  |  |  |  | > 100 |  | > 100 µM |  | > 100 |  | > 100 |  | 48.8 |  | 56.9 |  | > 100 µM |  | > 100 µM
c1ccc2c(c1)[nH]c1c2nc2ncccn21 |  | > 100 |  | > 100 µM |  | > 100 |  | > 100 µM |  | > 100 |  | > 100 |  | > 100 |  | > 100 |  |  |  | > 100 µM
COc1ccc2c(c1OC)OCC(CN(C)C)C2=O (centres undefined) |  | 5.32 |  | 10.5 µM |  | 26.4 |  | 32.5 µM |  | 53.2 |  | > 66.6 |  | 35.8 |  |  |  | 31.2 µM |  | 30.5 µM
C=CN(C)S(C)(=O)=O | > 100000 nM | > 100 | > 100000 nM | > 100 µM | > 100000 nM | > 100 | > 100 | > 100 µM | > 100 | > 100 | > 100000 | > 100 |  |  | > 100 | > 100 | > 100 | > 100 µM | > 100000 | > 100 µM
O=C(NO)c1ccc(Cn2c(=O)n(-c3ccccc3F)c(=O)c3ccccc32)cc1 | 2340 nM | > 100 | 2620 nM | > 100 µM | 1590 nM | 4.37 | 1.83 | 4.75 µM | 1.74 | 4.01 | 1900 | 10.4 |  |  | 1.02 | 2.57 | 1.71 | 3.2 µM | 1330 | 2.9 µM
Cc1ncsc1-c1ccc(CNC(=O)[C@@H]2C[C@@H](O)CN2C(=O)[C@@H](NC(=O)C2(C#N)CC2)C(C)(C)C)cc1 | > 100000 nM | > 100 |  |  | > 100000 nM | > 100 | > 100 | > 100 µM | > 100 | > 100 | > 100000 | > 100 | > 100 | > 100 | 24 | > 100 | > 100 | > 100 µM | > 100000 | > 100 µM
O=S(=O)(Nc1cc(Cl)ccc1Cl)c1ccc(-c2cnc(C3CC3)o2)cc1 | 1640 nM | > 100 | 400 nM | > 100 µM | 814 nM | > 100 | 2.49 | 43.5 µM | 10.7 | 71.3 | 769 | 17.4 | 2.84 | 67.2 |  |  | 3.3 | > 100 µM | 1060 | 6.65 µM
CC1=C[P+](Cc2ccccc2)(c2ccccc2)CC1 (centres undefined) |  | > 100 |  | > 100 µM |  | > 100 |  | > 100 µM |  |  |  | > 100 |  | > 100 |  | > 100 |  | > 100 µM |  | > 100 µM
C=C(C)[C@@H]1CC[C@]2(CO)CC[C@]3(C)[C@H](CC[C@@H]4[C@@]5(C)CCC(NCCc6ccc(O)cc6)C(C)(C)[C@@H]5CC[C@]43C)[C@@H]12 (some centres undefined) | 1380 nM | 3.38 | 310 nM | 1.66 µM | 1410 nM | 2.89 | 1.32 | 2.69 µM | 1.86 | 3.67 | 1530 | 3 | 1.79 | 3.35 | 1.32 | 2.69 | 0.783 | 2.09 µM |  | 
COc1ccc(CNc2nc3cc(N)cc(N)c3nc2-c2ccccc2)cc1 |  |  | 25400 nM | 97.1 µM | 12800 nM | 30 | 11.4 | 28.7 µM | 9.79 | 22 | 20500 | 48.4 | 16.8 | 34.4 | > 100 | > 100 | 13.6 | 27.4 µM | 5320 | 18.4 µM
COc1ccc(OC(C(=O)O)c2ccccc2)c2c1CCCC2=O (centres undefined) |  | > 100 |  | > 100 µM |  | > 100 |  | > 100 µM |  | > 100 |  | > 100 |  | > 100 |  | > 100 |  | > 100 µM |  | 
CCOC(=O)[C@@H](C)C[C@H](Cc1ccccc1)NC(=O)c1csc([C@@H](C[C@H](C(C)C)N(C)C(=O)[C@H](CC)NC(=O)[C@H]2CCCCN2C)OC(C)=O)n1 | 8.96 nM | > 16.7 | < 1.67 nM | > 16.7 µM | < 1.67 nM | > 16.7 | 0.0128 | > 16.7 µM | < 0.027 | > 16.7 | < 1.67 | > 16.7 | 0.00476 | > 16.7 |  |  | 0.00842 | > 16.7 µM |  | 
